Here are results for 13 compounds from patent publication US20090023667A1 (priority 2005, published 2009).

The structures appear in SMILES notation. Where two headings read alike, the source gives them in different places.

Common to all, as to format: in vivo
Assay [1] relates to rice Bakanae disease. The experiment in a line: Test Example 7: control test on rice Bakanae disease, seed immersion. As to conditions: seed immersion 24 hours. The protocol:
150 g of dry rice seeds of naturally infected with rice Bakanae disease (cultivar: Nihonbare) was immersed in a compound solution which was diluted with water to have a prescribed concentration at a volume ratio of 1:1 for 24 hours (liquid temperature; 20 degree centigrade) and air-dried. Subsequently, the seeds were soaked in water at 15 degree centigrade for 4 days and subjected to a sprouting in water at 30 degree centigrade for 24 hours, and then sowed in a nursery box. After the sowing, the seeds were incubated at 30 degree centigrade for 2 days and grown in a greenhouse. After 21 days from the sowing, the number of seedlings showing symptoms of Bankanae disease for 300 seedlings per each chemical was examined. The control value was calculated according to the following equation.
Control Value=(1−number of infected seedlings in the treated plot/number of infected seedlings in the untreated plot)×100

The subject of assay [2] is Pyricularia oryzae. As to conditions: rice blast, nursery box application of granule; 7.5 gai/box.
Assay [3] deals with Rhizoctonia solani. Briefly: Test Example 5: control test on paddy rice sheath blight, submerged application. Conditions: submerged application of granule. The protocol: After 14 days from the treatment, Rhizoctonia solani cultured on a rice chaff/bran medium was inoculated on the basal of the rice plant. After 10 days from the inoculation, the extended lesion length of sheath blight of the whole stem was examined. The control value was calculated according to the following equation (3 replications).
(§1) Control Value=(1−average lesion length per a stem in the treated plot/average lesion length per a stem in the untreated plot)×100

The test system of assay [4] is Pyricularia oryzae. Briefly: whole plant or invertebrate. As to conditions: for pest or weed control at 60 ppm: Pyricularia oryzae, 168 h, read-out: Control value; for Control value: 60 ppm.
Assay [5] relates to Rhizoctonia solani. Briefly: Test Example 6: control test on paddy rice sheath blight, nursery box application. As to conditions: nursery box application of granule. The protocol:
After 30 days from the treatment, Rhizoctonia solani cultured on a rice chaff/bran medium was inoculated on the basal of the rice plant. After 10 days from the inoculation, the extended lesion length of sheath blight of the whole stem was examined. The control value was calculated according to the following equation (3 replications).
as §1

Assay [6] deals with Pyricularia oryzae.
In assay [7] the test system is Pyricularia oryzae. The source holds these as a separate data set.
Assay [8] relates to Rhizoctonia solani. Briefly: Test Example 4: control test on paddy rice sheath blight, spraying. Conditions: 60 ppm. The protocol: A compound solution of a prescribed concentration was sprayed on three 1/5000a rice pots (cultivar: Koshihikari; 4 leaf stage). After one day from the spraying, Rhizoctonia solani cultured on a rice chaff/bran medium was inoculated on the basal of the rice plant. After 10 days from the inoculation, the extended lesion length of sheath blight of the whole stem was examined. The control value was calculated according to the following equation (3 replications).
as §1

For assay [9], the system named is Rhizopus chinensis. Briefly: Test Example 8: control test on seedling blight (Rhizopus sp), irrigation. Conditions: irrigation 500 ml per box. The protocol: 150 g of rice seeds (cultivar: Nihonbare) per a box was sowed in a commercial nursery box. After the sowing, the box was treated by irrigation with a compound solution which was diluted to the prescribed concentration at a ratio of 500 ml per a box before covering the seeds with soil. Infected soil, which was made by adding sterilized water to Rhizopus chinensis cultured on a PDA medium and pulverizing whole medium and mixing to a commercial soil, was used for a bed soil. For covering the seeds, a commercial soil was used as it was. After covering the seeds with soil, the seeds were incubated at 32 degree centigrade for 2 days and then grown in a greenhouse.
After 18 days from the sowing, the severity index for 300 seedlings per each compound was examined in the following criteria. The control value was calculated according to the following equation from the average severity obtained by averaging the severity index of each seedling.
Severity index 0: No lesion • 1: Root browning or fat root observed • 2: Defective growth • 3: Withered to death
Control Value=(1−average severity in the treated plot/average severity in the untreated plot)×100

Setting [10] is: rice blast, sprayed at 60 ppm active ingredient, lesions after 7 days.

Compound `CCCCNC(=O)n1c(NC(=O)OC)nc2ccccc21` [Benomyl, reference compound] yielded a Control value in assay [1] (1000 ppm) of 98.

Regarding `Cc1ccc(C(=O)NC(CNC(=O)OCC(F)(F)F)C(C)C)cc1` (centres unmarked) [Compound 6, N-(2,2,2-trifluoroethyloxycarbonyl)-N′-(4-methylbenzoyl)-3-methyl-1,2-butanediamine], the Control value turned out to be 96 in [2]; 5 in assay [3] (225 gai/10a); 4 in assay [5] (7.5 gai/box); 95 in [6] (rice blast, submerged application of granule, 225 gai/10a); 3 in assay [8]. For the same compound, the pest or weed control at 60 ppm in assay [4] came to 97%. Moreover, the “Effect (class of control value)” value in [7] (setting [10]) is reported as “A (Not less than 80%)”.

Consider `Cc1ccc(C(=O)NC(CNC(=O)OC2CCCCC2Cl)C(C)C)cc1` (centres unmarked) [Compound 17, N-(2-chlorocyclohexyloxycarbonyl)-N′-(4-methylbenzoyl)-3-methyl-1,2-butanediamine], for which, in [4], the pest or weed control at 60 ppm was determined as 95%. The Control value was 3 in assay [9] (60 ppm) and 5 in assay [8]. Also, the “Effect (class of control value)” value in [7] (setting [10]) is “A (Not less than 80%)”.

As to `CCC(C)C(CNC(=O)c1ccc(C)cc1)NC(=O)OCC(F)(F)F` (centres unmarked) [Compound 25], the Control value in [3] (225 gai/10a) worked out at 5; in [6] (in vivo), 95. In assay [7] (in vivo), the “Effect (class of control value)” value is recorded as “A (key: A: Not less than 80%; B: Not less than 50% to less than 80%; C: Less than 50%)”.

For `Cc1ccc(C(=O)NCC(NC(=O)OC(C)C(F)(F)F)C(C)C)cc1` (centres unmarked) [Compound 30], the Control value in assay [3] (225 gai/10a) is 7; in assay [6] (in vivo) it was 97. The “Effect (class of control value)” value in [7] (in vivo) was “A (key: A: Not less than 80%; B: Not less than 50% to less than 80%; C: Less than 50%)”.

As for `CCC(C)C(CNC(=O)c1cc2ccccc2o1)NC(=O)OCC(F)(F)F` (centres unmarked) [Compound 32], the Control value came out at 95 in assay [4], 5 in assay [8] and 12 in assay [1] (60 ppm). Moreover, the “Effect (class of control value)” value in assay [7] (in vivo) is on record as “A (key: A: Not less than 80%; B: Not less than 50% to less than 80%; C: Less than 50%)”.

Consider `CCC(C)C(CNC(=O)c1nc2ccccc2s1)NC(=O)OCC(F)(F)F` (centres unmarked) [Compound 33], for which the Control value in [4] is listed as 96; in assay [8], 6; in [1] (60 ppm), 8. For the same compound, the “Effect (class of control value)” value in assay [7] (in vivo) is on record as “A (key: A: Not less than 80%; B: Not less than 50% to less than 80%; C: Less than 50%)”.

Take `CC(C)C(CNC(=O)c1cc2ccccc2s1)NC(=O)OCC(F)(F)F` (centres unmarked) [Compound 34]: the Control value in assay [4] was found to be 97; in assay [9] (60 ppm), 3; in assay [8], 7. The “Effect (class of control value)” value in assay [7] (in vivo) is “A (key: A: Not less than 80%; B: Not less than 50% to less than 80%; C: Less than 50%)”.

The compound `N#Cc1c[nH]cc1-c1cccc2c1OC(F)(F)O2` [Fludioxonil, reference compound] had a Control value in [1] (250 ppm) of 99.

Turning to `CC(C)NC(=O)N1CC(=O)N(c2cc(Cl)cc(Cl)c2)C1=O` [Iprodione, reference compound], the Control value in [9] (1000 ppm) was determined as 89.

As to `CNC(=O)/C(=N/OC)c1ccccc1Oc1ccccc1` [Metominostrobin, reference compound], the Control value is recorded as 95 in assay [3] (150 gai/10a) and 98 in assay [6] (rice blast, submerged application of granule, 150 gai/10a).

As for `CNC(=O)/C(=N/OC)c1ccccc1CO/N=C(C)/C(=N/OC)C(/C)=N/OC` [Oryzastrobin, reference compound], the Control value in assay [3] (100 gai/10a) is listed as 95; in assay [5] (3.5 gai/box), 94; in assay [6] (rice blast, submerged application of granule, 100 gai/10a) it was 99.

Consider `N#Cc1c(Cl)c(Cl)c(Cl)c(C#N)c1Cl` [TPN, reference compound], for which the Control value in [9] (800 ppm) is 87.
